Values quoted from earlier work, collected in patent publication US10286065B2 (priority 2014, dated 2019).

CCC(=O)O[C@]1(C(=O)SCF)[C@H](C)C[C@H]2[C@@H]3C[C@H](F)C4=CC(=O)C=C[C@]4(C)[C@@]3(F)[C@@H](O)C[C@@]21C [Fluticasone propionate]
solubility in dimethyl sulfoxide and dimethylformamide (dimethyl sulfoxide and dimethylformamide): freely soluble
solubility in methanol and 95% ethanol (methanol and 95% ethanol): slightly soluble
solubility in water (water): practically insoluble
